Here are results for three compounds from patent US4873236A, “Condensed diazepinones, processes for preparing them and pharmaceutical compositions containing these compounds” (Dr. Karl Thomae GmbH, priority 1986, dated 1989).

In assay [1] the target is T1, muscarinic receptors, heart (Rattus norvegicus, UniProt P10980).
T1 construct: After removal of the heart and submandibular gland; from tissue; host or cells: whole heart of male Sprague-Dawley rats, homogenate
T1 sequence (P10980 1-466): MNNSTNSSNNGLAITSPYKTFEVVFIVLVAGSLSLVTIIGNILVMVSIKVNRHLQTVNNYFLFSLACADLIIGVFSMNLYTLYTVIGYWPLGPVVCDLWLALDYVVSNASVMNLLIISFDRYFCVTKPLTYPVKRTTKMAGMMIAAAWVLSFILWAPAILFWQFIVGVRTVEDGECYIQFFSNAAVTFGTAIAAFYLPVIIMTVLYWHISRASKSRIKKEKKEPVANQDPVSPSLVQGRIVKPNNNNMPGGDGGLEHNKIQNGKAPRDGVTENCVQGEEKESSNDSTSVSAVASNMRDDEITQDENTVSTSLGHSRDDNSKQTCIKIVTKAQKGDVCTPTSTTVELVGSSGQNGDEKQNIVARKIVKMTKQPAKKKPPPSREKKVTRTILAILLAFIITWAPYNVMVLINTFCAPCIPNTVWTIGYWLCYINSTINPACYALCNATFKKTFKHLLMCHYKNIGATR
Nature of the assay: Receptor bonding test in vitro, heart (displacement of 3H-N-methylscopolamine). In kind it is binding, Sprague-Dawley rats. Conditions: for IC50: 0.3 nmolar 3H-NMS, 30° C., 45 min, heart.

In assay [2] the target is T2, M1 (rise in blood pressure by McN-A-343) (Rattus norvegicus, UniProt P08482).
T2 construct: from tissue
T2 sequence (P08482 1-460): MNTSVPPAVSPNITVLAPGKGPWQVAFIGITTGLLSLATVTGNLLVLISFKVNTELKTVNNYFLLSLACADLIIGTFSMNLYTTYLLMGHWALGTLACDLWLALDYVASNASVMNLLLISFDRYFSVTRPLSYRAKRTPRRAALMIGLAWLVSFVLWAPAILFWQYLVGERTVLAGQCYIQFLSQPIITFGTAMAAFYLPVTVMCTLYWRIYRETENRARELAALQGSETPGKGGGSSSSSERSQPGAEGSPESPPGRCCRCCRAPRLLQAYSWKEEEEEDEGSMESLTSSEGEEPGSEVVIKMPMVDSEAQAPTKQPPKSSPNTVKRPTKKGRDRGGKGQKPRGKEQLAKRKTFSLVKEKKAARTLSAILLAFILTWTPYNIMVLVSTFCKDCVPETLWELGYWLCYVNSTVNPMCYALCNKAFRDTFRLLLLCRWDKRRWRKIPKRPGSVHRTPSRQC
Nature of the assay: M1/M2 selectivity in the rat: inhibition of McN-A-343 blood pressure increase (M1). In kind it is in vivo, male THOM rats. Conditions: iv, 5 min, i.v., 50% reduction in blood pressure rise by 0.3 mg/kg McN-A-343, read-out: M1 activity (rat) ED50.

For assay [3], the system named is salivation. Nature of the assay: Salivation-inhibiting effect on the rat (pilocarpine). In kind it is in vivo, male THOM rats. Conditions: for ED50: Rattus norvegicus, iv, pilocarpine 2 mg/kg s.c., 50% reduction of saliva volume, read-out: Salivation inhibition (rat) ED50. On the procedure: The secretion of saliva was triggered by subcutaneous administration of 2 mg/kg of pilocarpine. The saliva was soaked up with blotting paper and the area occupied by the saliva was determined by planimetry every 5 minutes. The dosage of substance which reduced the volume of saliva by 50% was determined graphically.

Assay [4] concerns the target T3, muscarinic receptors of the atrium (Cavia porcellus, UniProt H0VRN8).
T3 construct: In the isolated, spontaneously beating right atrium; from tissue; host or cells: isolated right atrium of guinea pig
T3 sequence (H0VRN8 1-466): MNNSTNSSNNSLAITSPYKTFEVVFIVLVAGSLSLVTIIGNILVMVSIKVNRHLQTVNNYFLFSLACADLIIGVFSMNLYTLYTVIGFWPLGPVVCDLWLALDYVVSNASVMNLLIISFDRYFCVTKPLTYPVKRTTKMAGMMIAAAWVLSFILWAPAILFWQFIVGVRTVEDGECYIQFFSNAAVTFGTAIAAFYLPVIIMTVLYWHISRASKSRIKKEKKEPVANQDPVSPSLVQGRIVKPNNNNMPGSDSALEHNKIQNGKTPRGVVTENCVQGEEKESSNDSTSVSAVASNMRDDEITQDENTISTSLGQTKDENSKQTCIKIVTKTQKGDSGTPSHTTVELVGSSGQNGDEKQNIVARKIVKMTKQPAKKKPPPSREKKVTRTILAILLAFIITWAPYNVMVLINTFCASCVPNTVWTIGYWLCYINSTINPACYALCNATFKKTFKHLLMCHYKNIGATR
In words: Dissociation constants (KB) on spontaneously beating right atrium, methacholine antagonism. Conditions: guinea pig spontaneously beating atrium, methacholine, 30 min contact; read-out: KB Heart (dissociation constant). The arrangement: species or system guinea pig. On the procedure:
(§1) Dissociation constants (KB values) were determined in vitro on the guinea pig ileum and spontaneously beating atrium. The ileum was removed and incubated in Krebs-Henseleit solution in an organ bath. Contractions were produced by means of increasing concentrations of methacholine (M) so that a full concentration-activity curve could be plotted. Then M was washed out, the test substance was added and kept in contact for 30 minutes and again a concentration-activity curve was plotted with M. The dissociation constant was calculated according to Arunlakshana and Schild (Brit. J. Pharmacol. 14, 48, 1959) from the dosage ratio (DR), i.e. the extent of displacement of the concentration-activity curve.
(§2) In the isolated, spontaneously beating right atrium M reduced the heart rate as a function of the concentration. This effect was stopped by the addition of an antimuscarinic. Dissociation constants for the muscarinic receptors of the atrium were obtained in the same way as described above. A comparison of the dissociation constants measured in the two different tissues made it possible to identify cardioselective substances.

Assay [5] concerns muscarinic receptors of the atrium. Described as above. Further details: species or system guinea pig. Conditions: Table IV. On the procedure: as §1, §2
The target of assay [6] is T4, muscarinic receptors, ileum (Cavia porcellus, UniProt H0W1Z3).
T4 construct: The ileum was removed and incubated in Krebs-Henseleit solution; from tissue; host or cells: isolated ileum of guinea pig
T4 sequence (H0W1Z3 1-590): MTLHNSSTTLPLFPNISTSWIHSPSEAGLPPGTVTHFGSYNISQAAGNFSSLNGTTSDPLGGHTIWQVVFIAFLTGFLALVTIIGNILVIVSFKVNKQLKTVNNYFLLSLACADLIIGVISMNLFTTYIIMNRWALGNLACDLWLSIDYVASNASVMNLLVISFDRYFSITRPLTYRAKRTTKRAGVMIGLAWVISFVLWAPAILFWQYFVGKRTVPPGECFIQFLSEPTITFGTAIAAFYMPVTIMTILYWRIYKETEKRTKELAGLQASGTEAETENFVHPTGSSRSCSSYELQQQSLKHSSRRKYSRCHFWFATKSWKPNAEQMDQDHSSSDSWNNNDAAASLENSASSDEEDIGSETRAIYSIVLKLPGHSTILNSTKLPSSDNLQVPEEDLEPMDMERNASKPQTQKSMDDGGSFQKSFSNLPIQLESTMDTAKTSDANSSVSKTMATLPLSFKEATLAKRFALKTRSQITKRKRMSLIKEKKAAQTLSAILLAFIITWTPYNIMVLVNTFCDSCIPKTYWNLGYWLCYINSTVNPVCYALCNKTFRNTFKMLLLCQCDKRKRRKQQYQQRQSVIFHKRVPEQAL
In words: Dissociation constants (KB) on ileum, methacholine antagonism. Conditions: guinea pig ileum, 30 min contact, read-out: KB Ileum (dissociation constant). On the procedure:
Dissociation constants (KB values) were determined in vitro on the guinea pig ileum and spontaneously beating atrium. The ileum was removed and incubated in Krebs-Henseleit solution in an organ bath. Contractions were produced by means of increasing concentrations of methacholine (M) so that a full concentration-activity curve could be plotted.

In assay [7] the test system is muscarinic receptors, bronchi. Nature of the assay: Receptor bonding test in vivo, bronchi (3H-NMS). Conditions: in vivo binding, i.v., rat, 113 ng/kg 3H-NMS; 30 min. Further details: species or system female rats. On the procedure:
For these experiments, female rats with a body weight of about 200 g were used. Before the start of the test the animals were anaesthetised with a dosage of 1.25 g/kg of urethane. The animals were each given the prescribed dosage of test substance by intravenous injection. After 15 minutes, 113 ng/kg of ^3 H-N-methylscopolamine (^3 H-NMS) were administered by the same route. After another 15 minutes the animals were killed and the heart, bronchi and lachrymal glands were removed. These organs were dissolved in Soluene R and the radioactivity was determined. The measurements were assumed to be total bonding. […] ID50 values were determined for the individual organs using these tests.

For the compound `CCN(CC)CC1CCCCN1CCNC(=O)N1c2cc(Cl)ccc2C(=O)Nc2cccnc21` (centres unmarked) [Substance C, 9-chloro-11-[[[2-[2-[(diethylamino)methyl]-piperidin-1-yl]ethyl]amino]carbonyl]-5,11-dihydro-6H-pyrido[2,3-b][1,4]benzodiazepin-6-one], the IC50 in assay [1] came to 30 nM. Besides, the median effective dose (ED50) in assay [2] is 0.36 mg/kg; in assay [3], 1.4 mg/kg. For the same compound, the results for the antagonist equilibrium constant (Kb) in assay [4] and in assay [6] were 4.9 nM and 83.2 nM, respectively. The “efficacy compared with X and Y (in words)” value in assay [5] was “significantly more effective than X and Y”. For the same compound, the “ID50 Bronchi” value in assay [7] is on record as 3.0 mg/kg.
On to `CCCN(CCC)CC1CCCCN1CCNC(=O)N1c2ccccc2C(=O)Nc2cccnc21` (centres unmarked) [Substance A, 5,11-dihydro-11-[[[2-[2-[(dipropylamino)methyl]-piperidin-1-yl]ethyl]amino]carbonyl]-6H-pyrido[2,3-b][1,4]benzodiazepin-6-one], for which the 50% inhibitory concentration (IC50) in assay [1] is 20 nM. Besides, the ED50 was 0.562 mg/kg in assay [2] and 0.458 mg/kg in assay [3]. Moreover, the antagonist dissociation constant (Kb) in assay [4] is 2.45 nM; in assay [6], 25.7 nM. The “efficacy compared with X and Y (in words)” value in assay [5] was “significantly more effective than X and Y”. Also, the “ID50 Bronchi” value in assay [7] is 0.7 mg/kg.
`CCN(CC)CC1CCCCN1CCNC(=O)N1c2ccccc2NC(=O)c2csc(C)c21` (centres unmarked) [Substance B, 4-[[[2-[2-[(diethylamino)methyl]-piperidin-1-yl]ethyl]amino]carbonyl]-4,9-dihydro-3-methyl-10H-thieno[3,4-b][1,5]benzodiazepin-10-one]: the “Selectivity factor: Ratio IC50 submandibular gland to IC50 heart” value in assay [1] worked out at 5. The same compound yielded a half-maximal inhibitory concentration (IC50) in assay [1] of 3 nM. In addition, the ED50 in assay [2] is 0.033 mg/kg; in assay [3], 0.078 mg/kg. For the same compound, the “Ratio of salivation inhibition to M2 activity” value in assay [3] (rat, i.v. ED50 values) was determined as 9.75. Also, the results for the antagonist dissociation constant (Kb) in assay [4] and in assay [6] were 0.24 nM and 3.63 nM, respectively. Further, the “efficacy compared with X and Y (in words)” value in assay [5] is “significantly more effective than X and Y”. For the same compound, in assay [7], the “ID50 Bronchi” value worked out at 0.15 mg/kg.
